Test: Fasted plasma metabolomics, clinical study
Type: in vivo, human
Experimental: Plasma Metabolomic Data from Clinical Study with Compound of Example 11
Fasted plasma metabolomics biomarkers were examined seeking evidence of systemic and brain pharmacological effects of Compound from Example 11. Over 800 chemically defined metabolites were examined for each dose group and a ratio EOT/BL) was calculated with an associated p value. Four dose groups were tested, 3, 10 30 and 90 mg. In general, the 30 and 90 mg dose groups had the largest impact on the metabolomics profile, each with 120 metabolites with p<0.05, while the 3 and 10 mg groups had smaller effects (40 and 61 with p<0.05 respectively). The metabolites were split into about 60 families. […] BCAAs are positively correlated with insulin resistance and diabetes. […] Some of these metabolites, such as isovaleryl and isobutyryl carnitine are part of a principal component shown to be positively associated with insulin resistance. The numbers in Table 7 are ratios of the dose group averages end of treatment (EOT) to baseline (BL). A green box indicates a statistically significant (p<0.05) decrease in metabolite. The light green indicates the p value is between 0.05 and 0.1. Statistical comparisons between doses and visits were conducted using Two-Way Repeated Measure ANOVA. Reference is made to Newgard CB, 2017. Metabolomics and Metabolic Disease, Where Do We Stand? Cell Metabolism 25: 43-56, which is incorporated by reference with regard to the example.

CCc1oc(-c2ccc(OC)cc2)nc1CCOc1ccc2c(c1)CC[C@H]2CC(=O)[O-].[Na+] [Example 11, Sodium (S)-2-(5-(2-(5-ethyl-2-(4-methoxyphenyl)oxazol-4-yl)ethoxy)-2,3-dihydro-1H-inden-1-yl)acetate]
2-methylbutyrylcarnitine (C5), ratio EOT/BL (3 mg): 0.99 | 3-hydroxybutyrlcarnite, ratio EOT/BL (3 mg): 1.2 | Adrenoylcarnitine (C22:4)*, ratio EOT/BL (3 mg): 1.41 | Arachidonoylcarnitine (C20:4), ratio EOT/BL (3 mg): 1.34 | Arachidoylcarnitine (C20)*, ratio EOT/BL (3 mg): 1.11 | Ceramide (d18:2/24:1, d18:1/24:2), ratio EOT/BL (3 mg): 1.08 | Dihomo-linoleoylcarnitine (C20:2)*, ratio EOT/BL (3 mg): 1.24 | Docosapentaenoylcarnitine (C22:5n3)*, ratio EOT/BL (3 mg): 1.39 | Eicosenoylcarnitine (C20:1), ratio EOT/BL (3 mg): 1.22 | Linolenoylcarnitine (C18:3)*, ratio EOT/BL (3 mg): 1.17 | Linoleoylcarnitine (C18:2)*, ratio EOT/BL (3 mg): 1.22 | Margaroylcarnitine*, ratio EOT/BL (3 mg): 1.03 | Myristoycarnitine (C14), ratio EOT/BL (3 mg): 1.32 | N-acetylleucine, ratio EOT/BL (3 mg): 0.98 | N-palmitoyl-sphingosince (d18:1/16:0), ratio EOT/BL (3 mg): 1.06 | N-stearoyl-sphinogosince (d18:1/18:0), ratio EOT/BL (3 mg): 1.05 | Oleoylcarnitine (C18:1), ratio EOT/BL (3 mg): 1.34 | Palmitoleoylcarnitine (C16:1)*, ratio EOT/BL (3 mg): 1.44 | Palmitoylcaritine (C16), ratio EOT/BL (3 mg): 1.25 | Stearoylcarnitine (C18), ratio EOT/BL (3 mg): 1.11 | acetylcarnitine (C2), ratio EOT/BL (3 mg): 1.14 | ceramide (d16:1/24:1, d18:1/22:1), ratio EOT/BL (3 mg): 1.13 | ceramide (d18:1/14:0, d16:1/16:0), ratio EOT/BL (3 mg): 1.1 | ceramide (d18:1/17:0, d17:1/18:0), ratio EOT/BL (3 mg): 1.03 | ceramide (d18:1/20:0, d16:1/22:0 d20:1/18:0), ratio EOT/BL (3 mg): 1.12 | isobutyrylcarnitine (C4), ratio EOT/BL (3 mg): 0.95 | isoleucine, ratio EOT/BL (3 mg): 0.93 | isovalerylcarnitine (C5), ratio EOT/BL (3 mg): 1.11 | laurylcarnitine (C12), ratio EOT/BL (3 mg): 1.4 | leucine, ratio EOT/BL (3 mg): 0.95 | number of metabolites with p<0.05 (3 mg): 40 | octanoylcarnitine (C8), ratio EOT/BL (3 mg): 1.33 | valine, ratio EOT/BL (3 mg): 0.93 | 2-methylbutyrylcarnitine (C5), ratio EOT/BL (10 mg): 1.02 | 3-hydroxybutyrlcarnite, ratio EOT/BL (10 mg): 1.19 | Adrenoylcarnitine (C22:4)*, ratio EOT/BL (10 mg): 1.23 | Arachidonoylcarnitine (C20:4), ratio EOT/BL (10 mg): 1.23 | Arachidoylcarnitine (C20)*, ratio EOT/BL (10 mg): 1.09 | Ceramide (d18:2/24:1, d18:1/24:2), ratio EOT/BL (10 mg): 0.96 | Dihomo-linoleoylcarnitine (C20:2)*, ratio EOT/BL (10 mg): 1.24 | Docosapentaenoylcarnitine (C22:5n3)*, ratio EOT/BL (10 mg): 1.18 | Eicosenoylcarnitine (C20:1), ratio EOT/BL (10 mg): 1.03 | Linolenoylcarnitine (C18:3)*, ratio EOT/BL (10 mg): 1.19 | Linoleoylcarnitine (C18:2)*, ratio EOT/BL (10 mg): 1.21 | Margaroylcarnitine*, ratio EOT/BL (10 mg): 1.15 | Myristoycarnitine (C14), ratio EOT/BL (10 mg): 1.13 | N-acetylleucine, ratio EOT/BL (10 mg): 1 | N-palmitoyl-sphingosince (d18:1/16:0), ratio EOT/BL (10 mg): 1.02 | N-stearoyl-sphinogosince (d18:1/18:0), ratio EOT/BL (10 mg): 0.98 | Oleoylcarnitine (C18:1), ratio EOT/BL (10 mg): 1.1 | Palmitoleoylcarnitine (C16:1)*, ratio EOT/BL (10 mg): 1.11 | Palmitoylcaritine (C16), ratio EOT/BL (10 mg): 1.12 | Stearoylcarnitine (C18), ratio EOT/BL (10 mg): 1.19 | acetylcarnitine (C2), ratio EOT/BL (10 mg): 1.03 | ceramide (d16:1/24:1, d18:1/22:1), ratio EOT/BL (10 mg): .095 | ceramide (d18:1/14:0, d16:1/16:0), ratio EOT/BL (10 mg): 1.05 | ceramide (d18:1/17:0, d17:1/18:0), ratio EOT/BL (10 mg): 1.12 | ceramide (d18:1/20:0, d16:1/22:0 d20:1/18:0), ratio EOT/BL (10 mg): 1.05 | isobutyrylcarnitine (C4), ratio EOT/BL (10 mg): 1.01 | isoleucine, ratio EOT/BL (10 mg): 0.94 | isovalerylcarnitine (C5), ratio EOT/BL (10 mg): 0.97 | laurylcarnitine (C12), ratio EOT/BL (10 mg): 1.17 | leucine, ratio EOT/BL (10 mg): 0.98 | number of metabolites with p<0.05 (10 mg): 61 | octanoylcarnitine (C8), ratio EOT/BL (10 mg): 1.21 | valine, ratio EOT/BL (10 mg): 1.06 | 2-methylbutyrylcarnitine (C5), ratio EOT/BL (30 mg): 0.96 | 3-hydroxybutyrlcarnite, ratio EOT/BL (30 mg): 1.26 | Adrenoylcarnitine (C22:4)*, ratio EOT/BL (30 mg): 1.44 | Arachidonoylcarnitine (C20:4), ratio EOT/BL (30 mg): 1.34 | Arachidoylcarnitine (C20)*, ratio EOT/BL (30 mg): 1.16 | Ceramide (d18:2/24:1, d18:1/24:2), ratio EOT/BL (30 mg): 0.92 | Dihomo-linoleoylcarnitine (C20:2)*, ratio EOT/BL (30 mg): 1.47 | Docosapentaenoylcarnitine (C22:5n3)*, ratio EOT/BL (30 mg): 1.65 | Eicosenoylcarnitine (C20:1), ratio EOT/BL (30 mg): 1.43 | Linolenoylcarnitine (C18:3)*, ratio EOT/BL (30 mg): 1.35 | Linoleoylcarnitine (C18:2)*, ratio EOT/BL (30 mg): 1.37 | Margaroylcarnitine*, ratio EOT/BL (30 mg): 1.14 | Myristoycarnitine (C14), ratio EOT/BL (30 mg): 1.29 | N-acetylleucine, ratio EOT/BL (30 mg): 0.91 | N-palmitoyl-sphingosince (d18:1/16:0), ratio EOT/BL (30 mg): 0.89 | N-stearoyl-sphinogosince (d18:1/18:0), ratio EOT/BL (30 mg): 0.82 | Oleoylcarnitine (C18:1), ratio EOT/BL (30 mg): 1.51 | Palmitoleoylcarnitine (C16:1)*, ratio EOT/BL (30 mg): 1.66 | Palmitoylcaritine (C16), ratio EOT/BL (30 mg): 1.29 | Stearoylcarnitine (C18), ratio EOT/BL (30 mg): 1.24 | acetylcarnitine (C2), ratio EOT/BL (30 mg): 1.19 | ceramide (d16:1/24:1, d18:1/22:1), ratio EOT/BL (30 mg): 0.71 | ceramide (d18:1/14:0, d16:1/16:0), ratio EOT/BL (30 mg): 0.86 | ceramide (d18:1/17:0, d17:1/18:0), ratio EOT/BL (30 mg): 0.91 | ceramide (d18:1/20:0, d16:1/22:0 d20:1/18:0), ratio EOT/BL (30 mg): 0.83 | isobutyrylcarnitine (C4), ratio EOT/BL (30 mg): 0.77 | isoleucine, ratio EOT/BL (30 mg): 0.96 | isovalerylcarnitine (C5), ratio EOT/BL (30 mg): 0.99 | laurylcarnitine (C12), ratio EOT/BL (30 mg): 1.35 | leucine, ratio EOT/BL (30 mg): 1 | number of metabolites with p<0.05 (30 mg): 120 | octanoylcarnitine (C8), ratio EOT/BL (30 mg): 1.44 | valine, ratio EOT/BL (30 mg): 0.96 | 2-methylbutyrylcarnitine (C5), ratio EOT/BL (90 mg): 0.81 | 3-hydroxybutyrlcarnite, ratio EOT/BL (90 mg): 1.53 | Adrenoylcarnitine (C22:4)*, ratio EOT/BL (90 mg): 1.54 | Arachidonoylcarnitine (C20:4), ratio EOT/BL (90 mg): 1.31 | Arachidoylcarnitine (C20)*, ratio EOT/BL (90 mg): 1.17 | Ceramide (d18:2/24:1, d18:1/24:2), ratio EOT/BL (90 mg): 0.99 | Dihomo-linoleoylcarnitine (C20:2)*, ratio EOT/BL (90 mg): 1.54 | Docosapentaenoylcarnitine (C22:5n3)*, ratio EOT/BL (90 mg): 1.45 | Eicosenoylcarnitine (C20:1), ratio EOT/BL (90 mg): 1.61 | Linolenoylcarnitine (C18:3)*, ratio EOT/BL (90 mg): 1.25 | Linoleoylcarnitine (C18:2)*, ratio EOT/BL (90 mg): 1.22 | Margaroylcarnitine*, ratio EOT/BL (90 mg): 1.21 | Myristoycarnitine (C14), ratio EOT/BL (90 mg): 1.56 | N-acetylleucine, ratio EOT/BL (90 mg): 0.82 | N-palmitoyl-sphingosince (d18:1/16:0), ratio EOT/BL (90 mg): 0.89 | N-stearoyl-sphinogosince (d18:1/18:0), ratio EOT/BL (90 mg): 0.82 | Oleoylcarnitine (C18:1), ratio EOT/BL (90 mg): 1.46 | Palmitoleoylcarnitine (C16:1)*, ratio EOT/BL (90 mg): 1.79 | Palmitoylcaritine (C16), ratio EOT/BL (90 mg): 1.31 | Stearoylcarnitine (C18), ratio EOT/BL (90 mg): 1.18 | acetylcarnitine (C2), ratio EOT/BL (90 mg): 1.23 | ceramide (d16:1/24:1, d18:1/22:1), ratio EOT/BL (90 mg): 0.84 | ceramide (d18:1/14:0, d16:1/16:0), ratio EOT/BL (90 mg): 0.77 | ceramide (d18:1/17:0, d17:1/18:0), ratio EOT/BL (90 mg): 0.84 | ceramide (d18:1/20:0, d16:1/22:0 d20:1/18:0), ratio EOT/BL (90 mg): 0.84 | isobutyrylcarnitine (C4), ratio EOT/BL (90 mg): 0.57 | isoleucine, ratio EOT/BL (90 mg): 0.84 | isovalerylcarnitine (C5), ratio EOT/BL (90 mg): 0.68 | laurylcarnitine (C12), ratio EOT/BL (90 mg): 1.56 | leucine, ratio EOT/BL (90 mg): 0.8 | number of metabolites with p<0.05 (90 mg): 120 | octanoylcarnitine (C8), ratio EOT/BL (90 mg): 1.58 | valine, ratio EOT/BL (90 mg): 0.79

Reference: patent publication US20210369680A1, “METHODS OF TREATING DISEASES AND DISORDERS RESULTING FROM BETA CORONAVIRUS INFECTION” (T3D Therapeutics, Inc., priority 2020, published 2021)
